In paper PMC6458995, “MAP4K4 Inhibition Promotes Survival of Human Stem Cell-Derived Cardiomyocytes and Reduces Infarct Size In Vivo” (Cell Stem Cell, 2019):

What was measured:
Experiment in all cases: Dundee kinase panel
Assay type in all cases: biochemical
Conditions in all cases: for remaining activity at 1 µM: read-out: residual activity
[1] = target: T1, CAMK1 (Homo sapiens, UniProt Q14012)
T1 construct: lines 1-140) and Reaction Biology
Procedure: (§1) Compounds were screened at 1 μM. For key hits, pIC50 values were then determined by HTRF as above. […] Stability in mouse and human liver microsomes was determined by Cyprotex.

[2] = target: T2, CHK2 (Homo sapiens, UniProt O96017)
T2 construct: lines 1-140) and Reaction Biology
Procedure: as §1

[3] = target: T3, CDK2-Cyclin A (Homo sapiens, UniProt P24941)
T3 construct: lines 1-140) and Reaction Biology
Procedure: as §1

[4] = target: T4, MKK1 (Homo sapiens, UniProt Q02750)
T4 construct: lines 1-140) and Reaction Biology
T4 sequence (Q02750 whole entry): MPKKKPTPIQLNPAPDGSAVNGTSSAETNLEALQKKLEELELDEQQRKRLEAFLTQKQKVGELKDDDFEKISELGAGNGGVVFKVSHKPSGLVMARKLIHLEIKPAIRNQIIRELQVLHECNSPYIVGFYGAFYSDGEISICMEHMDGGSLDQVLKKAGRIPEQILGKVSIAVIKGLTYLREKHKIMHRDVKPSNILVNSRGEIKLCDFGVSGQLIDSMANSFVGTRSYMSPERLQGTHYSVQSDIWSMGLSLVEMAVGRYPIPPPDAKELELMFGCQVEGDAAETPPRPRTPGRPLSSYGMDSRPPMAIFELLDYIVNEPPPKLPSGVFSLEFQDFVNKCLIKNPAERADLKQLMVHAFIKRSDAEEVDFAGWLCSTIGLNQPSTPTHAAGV
Procedure: as §1

[5] = target: T5, MARK2 (Homo sapiens, UniProt Q7KZI7)
T5 construct: lines 1-140) and Reaction Biology
T5 sequence (Q7KZI7 whole entry): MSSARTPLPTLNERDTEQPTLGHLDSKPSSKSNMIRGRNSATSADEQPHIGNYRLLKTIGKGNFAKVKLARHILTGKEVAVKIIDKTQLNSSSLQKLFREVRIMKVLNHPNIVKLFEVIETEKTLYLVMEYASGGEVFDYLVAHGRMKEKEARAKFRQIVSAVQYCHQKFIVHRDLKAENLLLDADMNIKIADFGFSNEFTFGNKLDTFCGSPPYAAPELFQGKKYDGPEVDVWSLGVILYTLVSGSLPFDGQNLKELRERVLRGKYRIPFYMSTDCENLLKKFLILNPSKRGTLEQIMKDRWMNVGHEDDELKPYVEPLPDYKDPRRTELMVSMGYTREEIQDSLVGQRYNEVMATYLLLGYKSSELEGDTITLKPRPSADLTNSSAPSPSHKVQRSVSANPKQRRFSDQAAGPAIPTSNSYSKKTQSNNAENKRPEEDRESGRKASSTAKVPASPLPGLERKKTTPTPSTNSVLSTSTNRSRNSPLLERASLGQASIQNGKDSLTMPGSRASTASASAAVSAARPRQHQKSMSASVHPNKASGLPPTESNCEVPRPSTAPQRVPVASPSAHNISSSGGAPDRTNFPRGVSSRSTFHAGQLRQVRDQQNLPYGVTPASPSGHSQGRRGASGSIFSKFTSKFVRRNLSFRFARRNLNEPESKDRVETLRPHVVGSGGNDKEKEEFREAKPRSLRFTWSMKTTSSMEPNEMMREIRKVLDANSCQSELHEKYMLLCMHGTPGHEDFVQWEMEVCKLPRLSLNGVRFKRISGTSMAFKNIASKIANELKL
Procedure: as §1

[6] = target: T6, TTBK1 (Homo sapiens, UniProt Q5TCY1)
T6 construct: lines 1-140) and Reaction Biology
Procedure: as §1

[7] = target: T7, EF2K (Homo sapiens, UniProt O00418)
T7 construct: lines 1-140) and Reaction Biology
T7 sequence (O00418 1-725): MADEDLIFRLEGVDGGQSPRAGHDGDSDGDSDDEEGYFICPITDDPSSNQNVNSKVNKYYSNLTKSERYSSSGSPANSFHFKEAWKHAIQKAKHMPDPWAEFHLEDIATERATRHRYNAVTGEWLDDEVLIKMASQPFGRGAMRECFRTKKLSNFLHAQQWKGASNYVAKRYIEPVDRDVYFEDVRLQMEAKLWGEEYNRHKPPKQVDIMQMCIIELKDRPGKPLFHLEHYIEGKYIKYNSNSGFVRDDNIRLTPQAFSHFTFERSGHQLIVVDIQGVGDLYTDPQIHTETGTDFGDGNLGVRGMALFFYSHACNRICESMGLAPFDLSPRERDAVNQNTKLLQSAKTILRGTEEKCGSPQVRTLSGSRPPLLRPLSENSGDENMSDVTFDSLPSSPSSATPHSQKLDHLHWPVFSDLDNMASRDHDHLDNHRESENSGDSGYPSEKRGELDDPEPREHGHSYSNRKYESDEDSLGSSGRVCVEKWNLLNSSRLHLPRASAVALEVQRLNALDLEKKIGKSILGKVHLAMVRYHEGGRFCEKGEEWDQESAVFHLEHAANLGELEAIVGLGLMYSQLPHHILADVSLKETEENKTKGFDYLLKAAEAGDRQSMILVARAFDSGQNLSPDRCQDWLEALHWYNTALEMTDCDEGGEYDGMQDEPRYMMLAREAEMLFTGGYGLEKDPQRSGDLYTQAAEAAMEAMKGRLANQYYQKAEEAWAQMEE
Procedure: as §1

[8] = target: T8, PRK2 (Homo sapiens, UniProt Q16513)
T8 construct: lines 1-140) and Reaction Biology
T8 sequence (Q16513 whole entry): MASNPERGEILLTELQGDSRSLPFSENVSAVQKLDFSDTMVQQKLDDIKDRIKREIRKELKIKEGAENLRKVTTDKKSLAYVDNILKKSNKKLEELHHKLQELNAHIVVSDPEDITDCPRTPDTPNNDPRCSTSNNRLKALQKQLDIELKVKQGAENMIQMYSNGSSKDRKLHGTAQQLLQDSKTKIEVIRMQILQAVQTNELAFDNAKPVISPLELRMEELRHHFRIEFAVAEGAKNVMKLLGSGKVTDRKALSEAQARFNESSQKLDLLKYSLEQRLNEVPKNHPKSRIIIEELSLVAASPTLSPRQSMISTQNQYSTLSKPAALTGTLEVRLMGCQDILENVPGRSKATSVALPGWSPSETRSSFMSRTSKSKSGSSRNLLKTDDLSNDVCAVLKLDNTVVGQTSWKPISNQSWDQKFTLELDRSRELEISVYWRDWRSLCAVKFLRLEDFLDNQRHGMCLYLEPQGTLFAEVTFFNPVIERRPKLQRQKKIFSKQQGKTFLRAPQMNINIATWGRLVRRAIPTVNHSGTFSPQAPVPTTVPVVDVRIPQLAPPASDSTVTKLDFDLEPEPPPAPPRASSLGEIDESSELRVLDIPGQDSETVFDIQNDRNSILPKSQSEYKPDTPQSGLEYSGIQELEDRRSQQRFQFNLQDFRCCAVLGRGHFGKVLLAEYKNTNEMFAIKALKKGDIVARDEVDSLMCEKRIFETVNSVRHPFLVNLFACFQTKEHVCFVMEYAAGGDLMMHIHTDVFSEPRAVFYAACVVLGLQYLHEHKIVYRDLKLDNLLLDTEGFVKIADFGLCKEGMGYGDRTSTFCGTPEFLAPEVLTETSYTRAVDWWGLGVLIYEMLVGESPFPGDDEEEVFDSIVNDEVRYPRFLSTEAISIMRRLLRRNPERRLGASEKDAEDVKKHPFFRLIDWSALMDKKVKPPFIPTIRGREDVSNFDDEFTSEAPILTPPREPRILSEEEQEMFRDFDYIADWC
Procedure: as §1

[9] = target: T9, SIK2 (Homo sapiens, UniProt Q9H0K1)
T9 construct: lines 1-140) and Reaction Biology
T9 sequence (Q9H0K1 whole entry): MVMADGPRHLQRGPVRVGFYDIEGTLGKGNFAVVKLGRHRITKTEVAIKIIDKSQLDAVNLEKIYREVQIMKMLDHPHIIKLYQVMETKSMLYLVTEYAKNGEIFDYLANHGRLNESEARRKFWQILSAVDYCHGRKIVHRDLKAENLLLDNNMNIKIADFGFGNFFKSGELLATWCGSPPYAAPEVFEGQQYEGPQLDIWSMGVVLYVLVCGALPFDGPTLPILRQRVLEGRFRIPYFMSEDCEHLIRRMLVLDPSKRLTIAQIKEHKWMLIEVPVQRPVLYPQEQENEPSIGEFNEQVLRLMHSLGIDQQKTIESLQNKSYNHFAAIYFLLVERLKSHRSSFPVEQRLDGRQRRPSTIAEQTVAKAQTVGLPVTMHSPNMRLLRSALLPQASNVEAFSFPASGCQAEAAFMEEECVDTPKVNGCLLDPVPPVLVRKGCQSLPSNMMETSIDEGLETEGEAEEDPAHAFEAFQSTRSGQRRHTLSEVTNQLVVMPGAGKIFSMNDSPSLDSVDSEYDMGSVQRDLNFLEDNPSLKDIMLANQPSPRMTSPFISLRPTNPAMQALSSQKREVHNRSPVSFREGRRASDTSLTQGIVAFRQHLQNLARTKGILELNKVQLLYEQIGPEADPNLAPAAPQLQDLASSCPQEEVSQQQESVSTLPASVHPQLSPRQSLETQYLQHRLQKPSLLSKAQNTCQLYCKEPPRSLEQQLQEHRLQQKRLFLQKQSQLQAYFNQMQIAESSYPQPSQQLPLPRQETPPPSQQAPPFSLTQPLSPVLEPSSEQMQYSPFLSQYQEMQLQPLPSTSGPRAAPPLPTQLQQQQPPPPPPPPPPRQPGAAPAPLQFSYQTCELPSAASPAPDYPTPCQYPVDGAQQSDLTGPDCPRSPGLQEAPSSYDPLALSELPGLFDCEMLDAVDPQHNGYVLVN
Procedure: as §1

[10] = target: T10, p38d MAPK (Homo sapiens, UniProt O15264)
T10 construct: lines 1-140) and Reaction Biology
T10 sequence (O15264 1-365): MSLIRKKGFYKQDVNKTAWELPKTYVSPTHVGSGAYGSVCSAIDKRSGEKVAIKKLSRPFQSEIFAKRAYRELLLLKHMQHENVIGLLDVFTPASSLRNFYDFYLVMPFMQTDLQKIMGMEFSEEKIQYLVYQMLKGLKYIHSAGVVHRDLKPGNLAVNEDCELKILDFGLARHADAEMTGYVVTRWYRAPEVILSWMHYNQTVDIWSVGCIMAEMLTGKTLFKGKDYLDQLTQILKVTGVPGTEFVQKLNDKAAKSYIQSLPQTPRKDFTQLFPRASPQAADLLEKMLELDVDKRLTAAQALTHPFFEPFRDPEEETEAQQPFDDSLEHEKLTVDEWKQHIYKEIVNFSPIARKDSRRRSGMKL
Procedure: as §1

[11] = target: T11, DAPK1 (Homo sapiens, UniProt P53355)
T11 construct: lines 1-140) and Reaction Biology
Procedure: as §1

[12] = target: T12, FGF-R1 (Homo sapiens, UniProt P11362)
T12 construct: lines 1-140) and Reaction Biology
T12 sequence (P11362 22-822): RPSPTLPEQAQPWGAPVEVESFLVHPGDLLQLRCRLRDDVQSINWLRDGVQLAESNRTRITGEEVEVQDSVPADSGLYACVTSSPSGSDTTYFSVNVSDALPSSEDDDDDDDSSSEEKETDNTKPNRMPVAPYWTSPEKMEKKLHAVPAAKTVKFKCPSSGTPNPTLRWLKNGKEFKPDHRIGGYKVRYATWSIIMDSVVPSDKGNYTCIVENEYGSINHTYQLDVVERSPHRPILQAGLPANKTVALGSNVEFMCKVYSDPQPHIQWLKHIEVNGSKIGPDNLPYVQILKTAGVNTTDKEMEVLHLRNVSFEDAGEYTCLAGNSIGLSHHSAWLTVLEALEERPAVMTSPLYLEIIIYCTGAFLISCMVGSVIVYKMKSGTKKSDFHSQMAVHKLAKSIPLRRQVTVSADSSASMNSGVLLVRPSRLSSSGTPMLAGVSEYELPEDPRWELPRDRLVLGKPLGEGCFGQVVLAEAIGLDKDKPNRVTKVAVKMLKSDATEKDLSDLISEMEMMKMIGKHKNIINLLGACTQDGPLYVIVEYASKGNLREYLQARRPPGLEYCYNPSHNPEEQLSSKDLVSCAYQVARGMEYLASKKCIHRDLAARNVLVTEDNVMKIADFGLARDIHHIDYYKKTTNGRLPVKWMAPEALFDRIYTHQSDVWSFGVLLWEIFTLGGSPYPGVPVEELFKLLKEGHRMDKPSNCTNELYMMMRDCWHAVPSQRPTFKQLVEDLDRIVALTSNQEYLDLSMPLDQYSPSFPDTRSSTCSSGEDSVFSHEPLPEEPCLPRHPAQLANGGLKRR
Procedure: as §1

[13] = target: T13, MPSK1 (Homo sapiens, UniProt O75716)
T13 construct: lines 1-140) and Reaction Biology
T13 sequence (O75716 whole entry): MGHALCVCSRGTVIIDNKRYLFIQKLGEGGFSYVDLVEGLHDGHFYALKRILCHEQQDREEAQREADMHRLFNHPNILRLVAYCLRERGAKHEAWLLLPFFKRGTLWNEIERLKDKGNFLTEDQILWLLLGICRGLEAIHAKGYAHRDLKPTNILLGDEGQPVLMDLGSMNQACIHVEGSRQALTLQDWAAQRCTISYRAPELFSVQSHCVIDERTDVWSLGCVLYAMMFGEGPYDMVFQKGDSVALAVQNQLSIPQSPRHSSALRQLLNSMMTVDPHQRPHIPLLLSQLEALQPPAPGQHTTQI
Procedure: as §1

[14] = target: T14, PRAK (Homo sapiens, UniProt Q8IW41)
T14 construct: lines 1-140) and Reaction Biology
T14 sequence (Q8IW41 1-473): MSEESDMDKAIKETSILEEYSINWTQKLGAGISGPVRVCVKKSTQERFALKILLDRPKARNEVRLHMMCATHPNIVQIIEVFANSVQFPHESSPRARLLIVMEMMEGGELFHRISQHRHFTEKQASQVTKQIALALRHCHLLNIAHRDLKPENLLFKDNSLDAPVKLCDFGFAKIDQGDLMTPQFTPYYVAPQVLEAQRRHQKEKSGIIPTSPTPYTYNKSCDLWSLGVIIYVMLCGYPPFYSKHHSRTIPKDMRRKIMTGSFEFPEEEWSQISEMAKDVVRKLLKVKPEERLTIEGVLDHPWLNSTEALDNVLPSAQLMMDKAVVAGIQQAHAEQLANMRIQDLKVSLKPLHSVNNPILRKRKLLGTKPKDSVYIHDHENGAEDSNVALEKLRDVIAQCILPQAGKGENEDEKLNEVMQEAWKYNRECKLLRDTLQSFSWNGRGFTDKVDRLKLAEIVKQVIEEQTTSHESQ
Procedure: as §1

[15] = target: T15, ABL (Homo sapiens, UniProt P00519)
T15 construct: lines 1-140) and Reaction Biology
Procedure: as §1

[16] = target: T16, PLK1 (Homo sapiens, UniProt P53350)
T16 construct: lines 1-140) and Reaction Biology
Procedure: as §1

T1 sequence (Q14012 whole entry): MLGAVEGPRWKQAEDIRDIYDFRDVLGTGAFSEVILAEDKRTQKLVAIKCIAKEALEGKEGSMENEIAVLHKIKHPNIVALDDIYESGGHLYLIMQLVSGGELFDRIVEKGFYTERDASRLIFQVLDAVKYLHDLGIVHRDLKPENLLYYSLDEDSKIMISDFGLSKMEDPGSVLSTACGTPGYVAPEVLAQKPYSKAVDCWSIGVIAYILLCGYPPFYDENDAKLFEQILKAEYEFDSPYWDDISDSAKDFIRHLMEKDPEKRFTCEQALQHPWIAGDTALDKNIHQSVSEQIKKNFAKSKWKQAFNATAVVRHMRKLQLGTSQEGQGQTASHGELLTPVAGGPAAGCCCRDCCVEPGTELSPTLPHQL

Work on `O=C1Nc2ccc(I)cc2/C1=C/c1cc(Br)c(O)c(Br)c1` [GW5074] yielded a remaining activity at 1 µM [1] of 70%, a remaining activity at 1 µM [2] of 46% and a remaining activity at 1 µM [3] of 111%. For the same compound, the remaining activity at 1 µM [4] was 80%, the remaining activity at 1 µM [5] was 49% and the remaining activity at 1 µM [6] was 62%. It also gave a remaining activity at 1 µM [7] of 57%, a remaining activity at 1 µM [8] of 68% and a remaining activity at 1 µM [9] of 24%. The remaining activity at 1 µM [10] was 82%, the remaining activity at 1 µM [11] was 29% and the remaining activity at 1 µM [12] was 89%. The remaining activity at 1 µM [13] was 38%, the remaining activity at 1 µM [14] was 93% and the remaining activity at 1 µM [15] was 58%. The remaining activity at 1 µM [16] was 81%.
Work on `Oc1ncnc2c1c(-c1ccccc1)cn2-c1ccccc1` [F1386-0303, 5,7-diphenyl-7H-pyrrolo[2,3-d]pyrimidin-4-ol] yielded a remaining activity at 1 µM [1] of 97%, a remaining activity at 1 µM [2] of 100% and a remaining activity at 1 µM [3] of 84%. For the same compound, the remaining activity at 1 µM [4] was 101%, the remaining activity at 1 µM [5] was 98% and the remaining activity at 1 µM [6] was 102%. The remaining activity at 1 µM [7] was 99%, the remaining activity at 1 µM [8] was 111% and the remaining activity at 1 µM [9] was 99%. The remaining activity at 1 µM [10] was 114%, the remaining activity at 1 µM [11] was 104% and the remaining activity at 1 µM [12] was 99%. For the same compound, the remaining activity at 1 µM [13] was 117%, the remaining activity at 1 µM [14] was 113% and the remaining activity at 1 µM [15] was 94%. It also gave a remaining activity at 1 µM [16] of 100%.
`O=C1Cc2c([nH]c3ccc(Br)cc23)-c2ccccc2N1` [Kenpaullone] showed a remaining activity at 1 µM [1] of 103%, a remaining activity at 1 µM [2] of 25% and a remaining activity at 1 µM [3] of 93%. For the same compound, the remaining activity at 1 µM [4] was 97%, the remaining activity at 1 µM [5] was 35% and the remaining activity at 1 µM [6] was 88%. The remaining activity at 1 µM [7] was 97%, the remaining activity at 1 µM [8] was 57% and the remaining activity at 1 µM [9] was 13%. For the same compound, the remaining activity at 1 µM [10] was 91%, the remaining activity at 1 µM [11] was 82% and the remaining activity at 1 µM [12] was 108%. It also gave a remaining activity at 1 µM [13] of 74%, a remaining activity at 1 µM [14] of 95% and a remaining activity at 1 µM [15] of 40%. For the same compound, the remaining activity at 1 µM [16] was 99%.
Compound `COCCOc1ccc(-c2cn(-c3ccccc3)c3nc[nH]c(=O)c23)cc1` [DMX-5804, 5-[4-(2-methoxy-ethoxy)-phenyl]-7-phenyl-3,7-dihydro-pyrrolo[2,3-d]pyrimidin-4-one] has a remaining activity at 1 µM [1] of 114%, a remaining activity at 1 µM [2] of 69% and a remaining activity at 1 µM [3] of 104%. The remaining activity at 1 µM [4] was 113%, the remaining activity at 1 µM [5] was 98% and the remaining activity at 1 µM [6] was 113%. It also gave a remaining activity at 1 µM [7] of 104%, a remaining activity at 1 µM [8] of 90% and a remaining activity at 1 µM [9] of 90%. For the same compound, the remaining activity at 1 µM [10] was 107%, the remaining activity at 1 µM [11] was 133% and the remaining activity at 1 µM [12] was 69%. For the same compound, the remaining activity at 1 µM [13] was 103%, the remaining activity at 1 µM [14] was 92% and the remaining activity at 1 µM [15] was 79%. For the same compound, the remaining activity at 1 µM [16] was 118%.
With `Nc1ncc(C(=O)NC2CN(C(=O)C3CC3)C2)c2ccc(-c3cccc(F)c3)nc12` [GNE-495] the residual activity ([1]; 1 μM) was 93%, the residual activity ([2]; 1 μM) was 102% and the residual activity ([3]; 1 μM) was 55%. For the same compound, the residual activity ([4]; 1 μM) was 56%, the residual activity ([5]; 1 μM) was 42% and the residual activity ([6]; 1 μM) was 97%. For the same compound, the residual activity ([7]; 1 μM) was 120%, the residual activity ([8]; 1 μM) was 85% and the residual activity ([9]; 1 μM) was 102%. It also gave a residual activity ([10]; 1 μM) of 110%, a residual activity ([11]; 1 μM) of 126% and a residual activity ([12]; 1 μM) of 119%. The residual activity ([13]; 1 μM) was 100%, the residual activity ([14]; 1 μM) was 91% and the residual activity ([15]; 1 μM) was 68%. The residual activity ([16]; 1 μM) was 84%.
